Data: patent US20100069393A1, “METHOD OF TREATMENT AND AGENTS USEFUL FOR SAME” (PRANA BIOTECHNOLOGY LIMITED, priority 2006, published 2010)

Key:
[1] = Blood brain barrier penetration (brain:plasma ratio after IV dose); format: in vivo; conditions: nominal dose 5 mg/kg, male Swiss Outbred mice
Description: A bolus injection of each of the test compound (50 μL of a 3 mg/mL aqueous solution containing 40% propylene glycol and 10% ethanol) was administered by tail vein injection to male Swiss Outbred mice (5-7 weeks of age).
At 5 and 60 min post-dose (n=3 mice at each time point), blood was collected by cardiac puncture and the whole brain was removed by making an incision through the back of the skull. Mice were anaesthetised approximately 3-4 min prior to blood and brain harvest with an intraperitoneal injection of ketamine and xylazine (133 mg/kg and 10 mg/kg, respectively).
The whole brain was placed into preweighed polypropylene vials and stored at −20° C. until analysis. On the day of analysis, the whole brain was homogenised in 3 parts of water (on ice to reduce the potential for ex vivo brain degradation) and an aliquot of the brain homogenate and plasma was analysed for compound concentration by LCMS. Standards were prepared by spiking blank brain homogenate and both samples and standards were processed by adding acetonitrile to the tissue homogenate, centrifuging and injecting an aliquot of the supernatant onto the LCMS.
To ensure complete recovery of compound from the brain, brain homogenate was spiked with compound (in 50% acetonitrile:50% water) to a nominal concentration of 500 ng/mL. The concentration of compound in the supernatant was then determined by LCMS and compared to the supernatant concentration when compound was added following precipitation with acetonitrile.

[2] = Cytotoxicity: viability of M17 cells; conditions: human, M17 neuroblastoma cells, Cytotoxicity (% viable at 1 and 10 uM); for viability at 1 uM: test compound 1 uM; for viability at 10 uM: test compound 10 uM
[3] = E Log D (chromatographic method, pH 7.4); format: physicochemical
Description: Effective Log D values were measured using a chromatographic method employing a SUPELCOSIL LC-ABZ column using an octanol saturated mobile phase at pH 7.4. See F. Lombardo et al, J. Med. Chem. 2000, 43, 2922-2928.

[4] = In vivo toxicity, visual observations; conditions: 30 mg/kg, number of days
[5] = Neurotoxicity assay: MTS viability of primary cortical neuronal cultures; format: cell-based, mouse; conditions: BL6Jx129sv, mouse, primary cortical neuronal cultures, Neuronal cells, read-out: Cytotoxicity (% viable at 1 and 10 uM); for viability at 4 days, 1 uM: test compound 1 uM; for viability at 4 days, 10 uM: test compound 10 uM
[6] = Mice plasma concentration; format: in vivo; conditions: for Mice plasma concentration: presence in plasma at one or two time points (between 30 min and 4 h); for Mice plasma concentration in Tg mice / Mice plasma concentration (single dose): one or two time points (between 30 min and 4 h)
in vitro = conditions: human, Cytotoxicity (% viable at 1 and 10 uM)
[7] = Phase I safety and tolerability in healthy volunteers; format: in vivo, human
Description: Compound B was administered to healthy volunteers in a 2-part study comprising single dose administration (Stage A) and multidose administration (Stage B).
The objectives of the Phase I trials were to determine the safety, tolerability and pharmacokinetics of single and multiple oral doses of Compound B in healthy volunteers. The double-blind studies were conducted at a Phase I unit in The Netherlands. The protocol included safety measures designed to capture the potential human adverse effects. A total of 65 healthy subjects have been exposed to doses of Compound B (41 single dose, 24 multiple dose).
In Stage A, fifty five (55) healthy male subjects aged 18-50 years were randomised (3:1) to receive a single oral dose of either placebo or Compound B at one of 7 dose levels (25, 50, 100, 200, 300, 500 or 800 mg).
In Stage B, thirty two (32) healthy male and female subjects aged 45-75 years (eight subjects per dose level) were randomised (3:1) to receive a daily oral dose over 7 consecutive days of either placebo or Compound B at one of 4 dose levels (200, 400, 600 or 800 mg). Each dose level comprised of 4 males and 4 females; the randomisation schedule ensuring that 1 subject/sex received placebo and 3 subjects/sex received Compound B.

[8] = tested on: M17 human neuroblastoma cells; experiment: Cytotoxicity: viability of M17 cells
[9] = tested on: primary cortical neuronal cultured cells; experiment: Neurotoxicity assay: MTS viability of primary cortical neuronal cultures; format: cell-based, mouse

Row | B:P Ratio ([1]; 5 min post dose) | B:P Ratio ([1]; 60 min post dose) | Mice plasma concentration [6] | Compound | viability at 1 uM [2] [%] | viability at 10 uM [2] [%] | Toxicity at 30 mg/kg [4] | viability at 4 days, 1 uM [5] [%] | viability at 4 days, 10 uM [5] [%] | also measured
1 | 0.20 | 0.17 | Up to 700 ng/mL | Oc1c(I)cc(Cl)c2cccnc12 | 107 | 72.7 | none | 90 | 77 | ElogD (E) [3]: 1.85
2 | 0.06 | 0.20 | Up to 11605 ng/mL | Cn1cnc(CCNC(=O)c2ccc3c(Cl)cc(Cl)c(O)c3n2)c1 | 108 | 82.6 | 10 days, none | 93 | 88 | –
3 | – | – | – | Oc1c(N2CCOCC2)ncc2cccnc12 | 112 | 93.7 | 10 days, mild toxic signs | 104 | 98 | ElogD (E) [3]: 1.45; Mice plasma concentration in Tg mice [6]: Below 80 ng/mL in Tg mice
4 | – | – | – | O=c1c2c(Cl)cc(Cl)c(O)c2ncn1-c1ccc(F)cc1 | 93.2 | 47.3 | 5 days, none | 98 | 67 | ElogD (E) [3]: 5.32; Mice plasma concentration in Tg mice [6]: Up to 120 ng/mL in Tg mice
5 | 0.26 | 0.24 | Up to 5000 ng/mL | O=c1c2c(Cl)cc(Cl)c(O)c2ncn1C1CC1 | 105 | 72 | 10 days, none | 91 | 77 | –
6 | 0.12 | 0.07 | Up to 2698 ng/mL | O=c1c2c(Cl)cc(Cl)c(O)c2ncn1CC1CC1 | 96.2 | 76.8 | 11 days, none | 116 | 105 | –
7 | 0.16 | 0.10 | Up to 984 ng/mL | O=c1c2c(Cl)cc(Cl)c(O)c2ncn1Cc1ccccn1 | 102 | 98.9 | 10 days, none | 99 | 98 | –
8 | 0.10 at 5 min, 0.10 at 60 min | 0.10 at 5 min, 0.10 at 60 min | Up to 2439 ng/mL | Cc1nc(Cn2cnc3c(O)c(Cl)cc(Cl)c3c2=O)cs1 | 97 | 95.7 | 10 days, none | 100 | 93 | –
9 | 0.18 | 0.08 | Up to 3644 ng/mL | Cc1noc(C)c1Cn1cnc2c(O)c(Cl)cc(Cl)c2c1=O | 104 | 76 | 10 days, none | 99 | 72 | –
10 | – | – | Up to 1,130.6 ng/mL | O=c1c2c(Cl)cc(Cl)c(O)c2ncn1Nc1ccc(F)cc1F | 105 | 83.1 | 10 days, none | 100 | 92 | –
11 | – | – | Up to 1802 ng/mL | CC(C)Cn1cnc2c(O)c(Cl)cc(Cl)c2c1=O | 102 | 75.6 | 10 days, none | 99 | 70 | –
12 | – | – | Up to 8134.8 ng/mL | OCCN1C=Nc2c(O)c(Cl)cc(Cl)c2C1 | 115 | 119 | 10 days, none | 107 | 96 | –
13 | – | – | – | Br.CCN(CC)CCn1cnc2c(O)c(Cl)cc(Cl)c2c1=O | 100 | 70.3 | 10 days, none | 107 | 77 | Mice plasma concentration (single dose) [6]: Up to 113.2 ng/mL (single dose)
14 | 0.07 | 0.06 | Up to 2508 ng/mL | O=c1c2ccc(I)c(O)c2ncn1CC1CC1 | 111 | 65.1 | 10 days, none | – | – | –
15 | 0.02 | 0.03 | Up to 11742 ng/ml ng/mL | CCCc1cnc2c(O)c(I)ccn2c1=O | 80.8 | 47.6 | 10 days, none | – | – | –
16 | – | – | – | O=c1c2cccc(O)c2ncn1Cc1cn2ccccc2n1 | – | – | – | – | – | viability at 1 uM (in vitro): 95%; viability at 10 uM (in vitro): 98.4%
17 | – | – | – | CN(C)Cc1ccc2c(Cl)cc(Cl)c(O)c2n1 [Compound B] | – | – | – | – | – | incidence of adverse events ([7]; Stage A, single oral dose 25-800 mg, healthy male volunteers aged 18 to 50 years): 43.9%; tolerability ([7]; Stage A, single oral dose, healthy male volunteers aged 18 to 50 years): well tolerated; tolerability ([7]; Stage B, daily oral dose over 7 days (200-800 mg), healthy subjects aged 45-75 years): generally well tolerated
18 | – | – | – | O=c1c2c(Cl)cc(Cl)c(O)c2ncn1-c1ccccn1 [drawing 171] | 101 | 80.5 | 10 days, none | 95 | 81 | Mice plasma concentration (single dose) [6]: Up to 142.9 ng/mL (single dose)
19 | – | – | Up to 383 ng/mL | Br.CCC(C)n1cnc2c(O)c(Cl)cc(Cl)c2c1=O (stereo not shown) [drawing 185] | 94.3 | 74.5 | 10 days, none | 104 | 71 | –
20 | – | – | Up to 2949 ng/mL | CCC(C)n1cnc2c(O)c(Cl)cc(Cl)c2c1=O (stereo not shown) [drawing 189] | – | – | 10 days, none | – | – | Cytotoxicity (% viable at 1 and 10 uM) ([8]; test compound 1 uM): 99.2%; Cytotoxicity (% viable at 1 and 10 uM) ([8]; test compound 10 uM): 68.6%; Cytotoxicity (% viable at 1 and 10 uM) ([9]; test compound 1 uM): 94%; Cytotoxicity (% viable at 1 and 10 uM) ([9]; test compound 10 uM): 67%
21 | – | – | Up to 144.2 ng/mL | O=c1c2c(Cl)cc(Cl)c(O)c2ncn1-c1ccccn1 [drawing 288] | – | – | 10 days, none | – | – | Cytotoxicity (% viable at 1 and 10 uM) ([8]; test compound 1 uM): 107.8%; Cytotoxicity (% viable at 1 and 10 uM) ([8]; test compound 10 uM): 89.2%

Row | Compound | B:P Ratio ([1]; 5 min post dose) | B:P Ratio ([1]; 60 min post dose) | Mice plasma concentration [6] | viability at 1 uM [2] [%] | viability at 10 uM [2] [%] | Toxicity at 30 mg/kg [4] | viability at 4 days, 1 uM [5] [%] | viability at 4 days, 10 uM [5] [%] | also measured
22 | CN(C)Cc1ccc2c(Cl)cc(Cl)c(O)c2n1.Cl [drawing 119] | 12.85 | 9.45 | Up to 500 ng/ml ng/mL | 94 | 54.3 | None | 84 | 72 | –
